{"source": "the supplement of paper PMC10307832", "experiment_in_all_cases": "relative viability (nuclei count vs DMSO), 5 days (fraction); higher = more cells survive", "key": {"[1]": {"compound": "O=C(NC1CCNCC1)c1n[nH]cc1NC(=O)c1c(Cl)cccc1Cl [AT-7519] + Cc1cc(Nc2cc(N3CCN(C)CC3)nc(Sc3ccc(NC(=O)C4CC4)cc3)n2)n[nH]1 [Tozasertib] (partner 0.1 µM)", "outline": "(§1)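 Five library-drug doses in √10 steps were combined with a fixed anchor-drug dose, or a single drug was given alone, by pin tool to lung cancer cell lines in 1536-well plates the day after seeding. Nuclei were stained and counted after 5 days. Relative viability is the nuclei count in treated wells over that in vehicle wells, taken as the median of duplicate plates.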"}, "[2]": {"compound": "O=C(NC1CCNCC1)c1n[nH]cc1NC(=O)c1c(Cl)cccc1Cl [AT-7519] + Nc1ncn([C@H]2C[C@H](O)[C@@H](CO)O2)c(=O)n1 [Decitabine] (partner 2 µM)", "outline": "as §1"}, "[3]": {"compound": "O=C(NC1CCNCC1)c1n[nH]cc1NC(=O)c1c(Cl)cccc1Cl [AT-7519] + CC(=O)Nc1cccc(-n2c(=O)n(C3CC3)c(=O)c3c(Nc4ccc(I)cc4F)n(C)c(=O)c(C)c32)c1 [Trametinib] (partner 0.02 µM)", "outline": "as §1"}, "[4]": {"compound": "C1=CC2=C(C=C(C(=C2N=C1)O)N=NC3=CC4=C(C=C3)C=C(C=C4)S(=O)(=O)O)S(=O)(=O)O + C[C@@H](Oc1cc(-c2cnn(C3CCNCC3)c2)cnc1N)c1c(Cl)ccc(F)c1Cl [Crizotinib] (partner 1 µM)", "outline": "as §1"}}, "data": [{"cell line": "UMC-11", "values": [{"measurement": "relative viability", "setting": "[1]; first compound 0.01 µM", "value": 0.223}, {"measurement": "relative viability", "setting": "[1]; first compound 0.03162 µM", "value": 0.211}, {"measurement": "relative viability", "setting": "[1]; first compound 0.3162 µM", "value": 0.278}, {"measurement": "relative viability", "setting": "[1]; first compound 1 µM", "value": 0.219}, {"measurement": "relative viability", "setting": "[2]; first compound 0.01 µM", "value": 0.675}, {"measurement": "relative viability", "setting": "[2]; first compound 0.03162 µM", "value": 0.551}, {"measurement": "relative viability", "setting": "[2]; first compound 0.3162 µM", "value": 0.514}, {"measurement": "relative viability", "setting": "[2]; first compound 1 µM", "value": 0.306}, {"measurement": "relative viability", "setting": "[3]; first compound 0.01 µM", "value": 0.593}, {"measurement": "relative viability", "setting": "[3]; first compound 0.03162 µM", "value": 0.647}, {"measurement": "relative viability", "setting": "[3]; first compound 0.3162 µM", "value": 0.498}, {"measurement": "relative viability", "setting": "[3]; first compound 1 µM", "value": 0.384}, {"measurement": "relative viability", "setting": "[4]; first compound 0.08 µM", "value": 0.818}, {"measurement": "relative viability", "setting": "[4]; first compound 0.253 µM", "value": 0.584}, {"measurement": "relative viability", "setting": "[4]; first compound 0.8 µM", "value": 0.491}, {"measurement": "relative viability", "setting": "[4]; first compound 2.53 µM", "value": 0.693}, {"measurement": "relative viability", "setting": "[4]; first compound 8 µM", "value": 0.717}]}]}
